Assay results published in paper PMC10762035, “Molecular basis of human trace amine-associated receptor 1 activation” (Nature Communications, 2024).
Substitutions are numbered along the chain they refer to. “And” between values parts separate entries of the source, which are not always exact repeats. Equal values may be shown once. Read-outs that look alike come from different tables or passages of the source.

Assays:
Type in all cases: cell-based
hTA1 S107C = target: T1, hTA1 S107C (Homo sapiens, UniProt Q96RJ0, S107C); test: GloSensor cAMP accumulation assay, S107C mutant;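 further: cells transiently co-expressing receptor and GloSensor biosensor, luminescence read after 30 min agonist exposure at room temperature, concentration-response fitted by nonlinear regression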
T1 construct: expressed in transfected cells; host or cells: HEK293T
T1 sequence (Q96RJ0 1-339 S107C): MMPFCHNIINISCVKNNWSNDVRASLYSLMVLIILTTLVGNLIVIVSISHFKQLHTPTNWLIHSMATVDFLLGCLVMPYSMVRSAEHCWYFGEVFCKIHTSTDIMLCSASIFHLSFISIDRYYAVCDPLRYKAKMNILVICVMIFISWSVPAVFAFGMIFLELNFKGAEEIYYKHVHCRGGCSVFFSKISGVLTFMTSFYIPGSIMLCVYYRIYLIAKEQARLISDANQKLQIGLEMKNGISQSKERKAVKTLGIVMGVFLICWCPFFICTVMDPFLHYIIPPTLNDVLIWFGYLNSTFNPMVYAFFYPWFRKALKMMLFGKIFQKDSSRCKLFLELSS

hTA1 V184P = target: T2, hTA1 V184P (Homo sapiens, UniProt Q96RJ0, V184P); test: GloSensor cAMP accumulation assay, V184P mutant; settings: for cAMP accumulation response, single replicate values (source data, Supplementary Figure 5): hTA1 V184P (N=2), log[Compound]
T2 construct: expressed in transfected cells; host or cells: HEK293T
T2 sequence (Q96RJ0 1-339 V184P): T1 sequence (Q96RJ0 1-339 S107C) with C107S, V184P

hTA1 b2N = target: T3, hTA1 b2N (Homo sapiens, UniProt Q96RJ0); test: GloSensor cAMP accumulation assay, b2N construct; settings: b2N, n=2
T3 construct: read by me as the first 25 residues of β2AR (N); expressed in transfected cells; host or cells: HEK293T
T3 sequence (Q96RJ0 with tags, fused parts or gaps): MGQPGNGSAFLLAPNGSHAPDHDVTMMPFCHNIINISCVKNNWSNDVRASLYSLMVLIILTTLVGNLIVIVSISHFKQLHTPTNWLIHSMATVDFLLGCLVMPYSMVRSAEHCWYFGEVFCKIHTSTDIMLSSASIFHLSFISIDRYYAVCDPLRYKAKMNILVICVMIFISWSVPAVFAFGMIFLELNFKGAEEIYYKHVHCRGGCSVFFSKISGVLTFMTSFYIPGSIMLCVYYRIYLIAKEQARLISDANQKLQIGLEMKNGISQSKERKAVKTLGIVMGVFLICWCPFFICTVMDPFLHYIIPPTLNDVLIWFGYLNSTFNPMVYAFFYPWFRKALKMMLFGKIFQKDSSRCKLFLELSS

hTA1 = target: T4, hTA1 (Homo sapiens, UniProt Q96RJ0); test: GloSensor cAMP accumulation assay, concentration response, wild-type hTA1 in transfected HEK293T cells; settings: for Emax: HEK-293T; for Dose-response curves for asenapine vs endogenous trace amines: log[Compound], replicate values (N=2);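 on all read-outs here: luminescence read after 30 min compound exposure at room temperature in cells preloaded with D-Luciferin, reflecting Gs-driven cAMP rise, efficacy scaled to the maximal β-PEA response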
T4 construct: expressed in transfected cells; host or cells: HEK293T
T4 sequence (Q96RJ0 1-339): T1 sequence (Q96RJ0 1-339 S107C) with C107S

hTA1 C88S = target: T5, hTA1 C88S (Homo sapiens, UniProt Q96RJ0, C88S); test: GloSensor cAMP accumulation assay, C88S mutant; settings: C88S
T5 construct: expressed in transfected cells; host or cells: HEK293T
T5 sequence (Q96RJ0 1-339 C88S): T1 sequence (Q96RJ0 1-339 S107C) with C88S, C107S

Structure (SMILES): NCCc1ccc(O)cc1 [TYR, tyramine]
- ΔEmax values (each mutant value - WT average) (hTA1 S107C; S107C mutant minus WT average): 8.654
- Emax values, Mean (hTA1 S107C; S107C mutant, β-PEA = 100, each line an independent experiment, 3 replicates): 107.638 and 133.074
- EC50 (hTA1 S107C; S107C, n=2, read-out: EC50): 0.186 µM
- Emax (hTA1 S107C; S107C, n=2, read-out: Span ± SEM (Emax normalized to β-PEA)): 120%
- reduction in potency vs wild type (hTA1 V184P; V184P): 4 fold
- EC50 (hTA1 V184P; V184P, n=2, read-out: EC50): 1.49 µM
- Emax (hTA1 V184P; V184P, n=2, read-out: Span ± SEM (Emax normalized to β-PEA)): 105 ± 5.68%
- cAMP accumulation response, single replicate values (source data, Supplementary Figure 5) (hTA1 V184P; M = -5): 66.7204 and 110.557 and 88.2354 and 80.832 and 102.751 and 95.962
- cAMP accumulation response, single replicate values (source data, Supplementary Figure 5) (hTA1 V184P; M = -5.522): 68.2965 and 82.5176 and 84.3869 and 52.6087 and 59.3978 and 71.1332
- cAMP accumulation response, single replicate values (source data, Supplementary Figure 5) (hTA1 V184P; M = -6): 47.9177 and 50.0802 and 42.1633 and 41.1642 and 31.9504 and 31.2715
- cAMP accumulation response, single replicate values (source data, Supplementary Figure 5) (hTA1 V184P; M = -6.522): 19.512 and 25.4864 and 24.1669 and 21.0878 and 21.7667 and 21.1848
- cAMP accumulation response, single replicate values (source data, Supplementary Figure 5) (hTA1 V184P; M = -7): 8.113 and 10.3856 and 10.972 and 5.085 and 4.018 and 3.436
- cAMP accumulation response, single replicate values (source data, Supplementary Figure 5) (hTA1 V184P; M = -7.522): 1.736 and 1.149 and 1.113 and 1.69 (2×) and 1.5934
- cAMP accumulation response, single replicate values (source data, Supplementary Figure 5) (hTA1 V184P; M = -8): 1.479 and 2.432 and 2.102 and -0.4433 and -0.3463 and 0.1386
- cAMP accumulation response, single replicate values (source data, Supplementary Figure 5) (hTA1 V184P; M = -8.522): 0.0496 and 0.8926 and 2.065 and -0.3463 and 0.4296 and -0.05538
- cAMP accumulation response, single replicate values (source data, Supplementary Figure 5) (hTA1 V184P; M = -9): -0.2803 and 1.809 and 0.9293 and -0.4433 and -0.2494 (2×)
- cAMP accumulation response, single replicate values (source data, Supplementary Figure 5) (hTA1 V184P; M = -9.522): -0.3536 and -0.06036 and -0.6835 and -0.05538 (2×) and 0.04161
- cAMP accumulation response, single replicate values (source data, Supplementary Figure 5) (hTA1 V184P; M = -10): 0.4894 and -0.09701 and -0.5368 and 0.04161 and -0.3463 and -0.05538
- cAMP accumulation response, single replicate values (source data, Supplementary Figure 5) (hTA1 V184P; M = -10.522): -0.4269 and 0.4528 and -0.94 and 0.04161 and 0.5265 and -0.05538
- cAMP accumulation response, single replicate values (source data, Supplementary Figure 5) (hTA1 V184P; M = -11): 0.1229 and 0.4528 and 0.0496 and -0.2494 and -0.4433 and 0.1386
- cAMP accumulation response, single replicate values (source data, Supplementary Figure 5) (hTA1 V184P; M = -11.522): -0.2436 and 1.039 and -0.2803 and 0.04161 and 0.5265 and 0.3326
- cAMP accumulation response, single replicate values (source data, Supplementary Figure 5) (hTA1 V184P; M = -12): -0.1337 and -0.5368 and -0.7568 and 0.1386 and 0.5265 (2×)
- cAMP accumulation response, single replicate values (source data, Supplementary Figure 5) (hTA1 V184P; M = -12.522): 1.113 and 0.5994 and -0.5368 and 1.399 and 1.302 and 1.69
- EC50 (hTA1 V184P; hTA1 V184P mutant, Figure 3B source data, each grid row a separate experiment, 3 replicates, read-out: pEC50 values (Mean) (converted)): 2.18 µM and 1.02 µM
- Emax values, Mean (hTA1 V184P; hTA1 V184P mutant, β-PEA set to 100, each grid row a separate experiment, 3 replicates): 99.5188
- Emax (hTA1 V184P; hTA1 V184P mutant, β-PEA set to 100, each grid row a separate experiment, 3 replicates, read-out: Emax values (Mean)): 111%
- EC50 (hTA1 b2N; read-out: EC50): 0.151 µM
- Emax (hTA1 b2N; read-out: Span ± SEM (Emax normalized to β-PEA)): 99.5 ± 1%
- Emax (hTA1): 99%
- Emax (hTA1; WT hTA1, β-PEA = 100, average of the two experiments, read-out: Emax values, Avg): 99%
- Emax (hTA1; WT hTA1, β-PEA = 100, each line an independent experiment, 3 replicates, read-out: Emax values (Mean)): 98.7%
- Emax values, Mean (hTA1; WT hTA1, β-PEA = 100, each line an independent experiment, 3 replicates): 99.2414
- Emax values, Avg (hTA1; WT, average of the experiments, β-PEA = 100): 98.98
- Emax values, Avg (hTA1; WT, average of the two experiments): 98.98
- Emax values, Mean (hTA1; WT, mean of each independent experiment (3 replicates), β-PEA = 100): 98.7253 and 99.2414
- Emax values, Mean (hTA1; WT, single experiments (3 replicates each), β-PEA = 100): 98.7253 and 99.2414
- Dose-response curves for asenapine vs endogenous trace amines (hTA1; M = -5): 87.8798 and 96.6135 and 100.84 and 85.1295 and 110.033 and 96.1011
- Dose-response curves for asenapine vs endogenous trace amines (hTA1; M = -5.522): 78.3008 and 89.6171 and 91.9649 and 78.2527 and 93.1412 and 82.5257
- Dose-response curves for asenapine vs endogenous trace amines (hTA1; M = -6): 74.2157 and 61.4437 and 71.9149 and 59.67 and 72.4888 and 65.1224
- Dose-response curves for asenapine vs endogenous trace amines (hTA1; M = -6.522): 42.6615 and 39.1398 and 48.3901 and 34.5221 and 51.4135 and 39.5962
- Dose-response curves for asenapine vs endogenous trace amines (hTA1; M = -7): 13.8777 and 16.742 and 21.1088 and 17.6752 and 31.7847 and 17.7865
- Dose-response curves for asenapine vs endogenous trace amines (hTA1; M = -7.522): 4.58 and 3.454 and 4.252 and 2.943 and 7.126 and 3.989
- Dose-response curves for asenapine vs endogenous trace amines (hTA1; M = -8): 2.796 and 3.5 and 3.313 and 3.588 and 4.545 and 4.122
- Dose-response curves for asenapine vs endogenous trace amines (hTA1; M = -8.522): 0.3075 and 0.6831 and 1.294 and -0.5515 and 0.6503 and 0.4723
- Dose-response curves for asenapine vs endogenous trace amines (hTA1; M = -9): -0.6786 and 0.2605 and 0.02574 and -1.508 and -0.9298 and -0.774
- Dose-response curves for asenapine vs endogenous trace amines (hTA1; M = -9.522): -0.5847 and -0.9603 and -0.3499 and -2.02 and -0.7963 and -1.241
- Dose-response curves for asenapine vs endogenous trace amines (hTA1; M = -10): -0.1151 and -1.148 and -0.9134 and -1.041 and -0.1064 and -1.063
- Dose-response curves for asenapine vs endogenous trace amines (hTA1; M = -10.522): -0.3029 and -1.148 and -1.43 and -1.798 and -1.019 and -1.397
- Dose-response curves for asenapine vs endogenous trace amines (hTA1; M = -11): -0.209 (3×) and -0.6182 and 0.361 and -0.7518
- Dose-response curves for asenapine vs endogenous trace amines (hTA1; M = -11.522): 0.0727 and -0.06817 and 0.2605 and -0.7073 and 0.1607 and -0.4179
- Dose-response curves for asenapine vs endogenous trace amines (hTA1; M = -12): 0.0727 and 1.247 and 0.777 and -1.086 and -0.774 (2×)
- Dose-response curves for asenapine vs endogenous trace amines (hTA1; M = -12.522): 0.4483 and 0.1197 and 0.3544 and -2.02 and -1.575 and -1.33
- EC50 (hTA1; pEC50 values (Mean), WT hTA1, each line an independent experiment, 3 replicates, Figure 2B source data): 0.414 µM and 0.416 µM
- EC50 (hTA1; pEC50 ± SEM, wt hTA1, HEK293T, n=3): 0.417 µM
- EC50 (hTA1; wt hTA1, HEK293T, n=3, read-out: EC50): 0.415 µM
- Emax values (hTA1 C88S; Mean of fit per experiment): 100.851
- Emax (hTA1 C88S; Mean of fit per experiment, read-out: Emax values): 118%
- EC50 (hTA1 C88S; Mean of fit per experiment, read-out: pEC50 values (converted)): 0.442 µM and 0.317 µM
- EC50 (hTA1 C88S; n=2, read-out: EC50): 0.375 µM
- Emax (hTA1 C88S; n=2, read-out: Span ± SEM (Emax normalized to β-PEA)): 109 ± 8.4%
